# Data: PMC8401948, “Improving the Solubility and Oral Bioavailability of a Novel Aromatic Aldehyde Antisickling Agent (PP10) for the Treatment of Sickle Cell Disease” (Pharmaceutics, 2021)
# Legend:
# [1] = Pharmacokinetics study in rats, whole blood PP10-acid; format: in vivo, Sprague-Dawley rats; details: rat, all analyses
# Description: A single-dose one-period parallel design was utilized to investigate the pharmacokinetics of pure PP10, the polymeric-PP10 binary systems with PVP-K90 and HP-β-CD, and the PP10-TPGS aqueous micelle solution formulation. The study was conducted according to the guidelines of Good Clinical Practice (GCP), the International Conference on Harmonization (ICH), and the European Medicines Agency (EMA). The protocol for the animal study received prior approval from the Research Ethics Committee, Faculty of Pharmacy, King Abdulaziz University, Saudi Arabia (reference no. PH-1442-68) in 04/03/2021.
# Male Sprague-Dawley rats (300–350 g) were used. The animals were maintained on a 12 h light/dark cycle (lights-on at 7 a.m.) with free access to food and water in a temperature-controlled room. After 7 days of acclimatization, animals were classified into four groups (n = 6). Group I was administered oral drug tablets containing pure drug (positive control). Group II was given oral drug tablets containing PP10-PVP K90 binary system. […]
# The concentration of the parent PP10 and PP10-acid metabolite in the whole blood samples were determined using a gradient elution HPLC chromatographic condition using a Waters Symmetry Shield C18 (Waters, MA, USA), 5 µm 3.9 × 150 mm column, and a Waters 2998 PDA detector (Waters, MA, USA) with detection wavelength adjusted to 274 nm. […]
# [2] = Stability of PP10 at different pHs (HPLC, MASS scan); format: physicochemical
# Description: The parent PP10 could hydrolyze into the corresponding PP10-acid either chemically (acid/base hydrolysis) or by the action of esterase in the blood, which could affect the PK and/or PD properties. This potential hydrolysis behavior was studied by investigating the stability of the parent methylester compound in buffer at different pHs, and in blood. To examine potential chemical degradation, a solution of PP10 (2 mg/mL) was prepared in methanol. Known volume (1 mL) of this methanol solution was diluted with a definite volume (20 mL) of buffer at pH 1.2, 5.5, or 7.4, corresponding to the gastric pH, the pH of the proximal small intestine, and the pH of the terminal ileum or physiological body fluids, respectively. Methanolic drug solution of the same concentration was also prepared as a reference. The different pH mixtures were incubated in a water bath at 37 °C overnight. The high-performance liquid chromatography (HPLC) chromatogram of the parent compound (methanolic drug solution) was compared with the corresponding drug buffer samples. The molecular weight of degraded product(s) was investigated using MASS scan. Details of the apparatus and conditions are described below.
# [3] = Equilibrium aqueous solubility of PP10 and polymeric-PP10 binary systems; format: physicochemical; details: distilled water, 25 °C
# Description: The equilibrium solubility of pure PP10 and the three polymeric drug binary systems with PVP-K90, Eudragit L100-55, or HP-β-CD were studied to investigate the effect of the complexation on the aqueous solubility of PP10. An excess quantity of the pure drug or the prepared binary systems was added to 5 mL of distilled water in a screw-capped vial and transferred to a thermostatically controlled shaking water bath (Model 1031; GFL Corporation, Burgwedel, Germany) at 25 ± 0.5 °C for 72 h. […] Drug stock solution was prepared in methanol and different standard drug solutions in the range of 2–10 µg/mL were prepared. The absorbance of the prepared standard solutions was measured, resulting in a correlation coefficient (R^2) of 0.9986.
# [4] = design: method as in PMID 33205981; details: in vitro, whole blood; cited from earlier work
# HbS = molecular target: T1, HbS (Homo sapiens, UniProt P68871+P69905, E7V); assay: Hb modification (Hb adduct formation), cation-exchange HPLC; format: cell-based; details: SS blood, 0.5, 1 and 2 mM
# T1 construct: tested using homozygous sickle cell (SS) blood for their pharmacologic activities; from tissue; host or cells: Whole blood (red blood cells) from individuals with homozygous sickle cell disease
# Description: (§1) The parent PP10, its acid metabolite PP10-acid, and the sodium salt PP10-NaSalt were tested using homozygous sickle cell (SS) blood for their pharmacologic activities. Leftover blood samples from individuals with SS were obtained (based on an approved IRB protocol at the Children’s Hospital of Philadelphia, with informed consent) and used for in vitro antisickling, Hb modification, and oxygen equilibrium studies following methods previously published by our group. For the antisickling study, SS blood samples (hematocrit 20%) were incubated under air in the absence or presence of PP10, PP10-acid, or PP10-NaSalt (0.5 mM, 1 mM, and 2 mM) at 37 °C for 1 h, followed by incubation of the mixture under hypoxic conditions (2.5% O2/97.5% N2) at 37 °C for 2 h. […]
# (§2) Residual samples from the above study were washed in phosphate-buffered saline and hemolyzed by hypotonic lysis in deionized water for the oxygen equilibrium and Hb modification (Hb adduct formation) studies. […] The areas of new peaks, representing HbS adducts, were obtained, calculated as percentages of total Hb area, and reported as levels of modified Hb or Hb adduct. […] Degree of Hb O2 affinity shift (ΔP50) was expressed as percentage of control DMSO-treated samples.
# [5] = system: sickle red blood cell (SS blood); assay: In vitro antisickling study with sickle whole blood; format: cell-based, human; details: for antisickling effect (RBC sickling inhibition): SS blood HCT 20%, 0.5, 1 and 2 mM, hypoxia 2.5% O2
# Description: The parent PP10, its acid metabolite PP10-acid, and the sodium salt PP10-NaSalt were tested using homozygous sickle cell (SS) blood for their pharmacologic activities. Leftover blood samples from individuals with SS were obtained (based on an approved IRB protocol at the Children’s Hospital of Philadelphia, with informed consent) and used for in vitro antisickling, Hb modification, and oxygen equilibrium studies following methods previously published by our group. For the antisickling study, SS blood samples (hematocrit 20%) were incubated under air in the absence or presence of PP10, PP10-acid, or PP10-NaSalt (0.5 mM, 1 mM, and 2 mM) at 37 °C for 1 h, followed by incubation of the mixture under hypoxic conditions (2.5% O2/97.5% N2) at 37 °C for 2 h. Aliquots were fixed with 2% glutaraldehyde solution in sodium cacodylate buffer, pH 7.4, without exposure to air, and then subjected to microscopic morphological analysis of bright field images (at 40× magnification) of single layer cells on an Olympus BX40 microscope fitted with an Infinity 2 camera and coupled with Image Capture cellSens software (Olympus, Tokyo, Japan).
# Hb = Hb oxygen equilibrium study (Hemox Analyzer, P50 shift); format: cell-based, human; details: 2 mM, SS blood
# Description: as §1, §2
"stability (hydrolysis to PP10-acid) ([2]; buffer pH 1.2, 37 °C overnight)","stability (hydrolysis to PP10-acid) ([2]; buffer pH 5.5, 37 °C overnight)","stability (hydrolysis to PP10-acid) ([2]; buffer pH 7.4, 37 °C overnight)","stability ([2]; straight methanol, 37 °C overnight)",solubility at 72 h [3],Structure (SMILES),parent PP10 compound in whole blood after dosing [1],parent PP10 hydrolyzed into the PP10-acid metabolite [4],Hb adduct formation (HbS),"inhibition at 2000 µM ([5]; Homo sapiens, Erythrocyte, 2 mM, SS blood, read-out: RBC sickling inhibition more than PP10-acid)",antisickling effect (RBC sickling inhibition) [5],increase of Hb oxygen affinity compared with the ester (PP10) (Hb)
most significant degradation,degrades into the acid form,degrades into the acid form,stable,12 ± 2 µg/mL,"COC(=O)c1cccc(COc2cccc(O)c2C=O)n1 [PP10, Methyl 6-((2-formyl-3-hydroxyphenoxy)methyl) picolinate]",No parent PP10 compound (PP10) was observed in any of the analyses,about 20%,highest Hb adduct formation,36%,dose-dependent antisickling effect,–
–,–,–,–,–,O=Cc1c(O)cccc1OCc1cccc(C(=O)[O-])n1.[Na+] [PP10-NaSalt],–,–,significantly less adduct formation,–,almost no activity,–
–,–,–,–,–,O=Cc1c(O)cccc1OCc1cccc(C(=O)O)n1 [PP10-acid],–,–,–,–,dose-dependent antisickling effect,about 30%
